Data from ChEMBL document CHEMBL3525928 (Drug Metab Dispos, 2011).

Key:
OATP1B3 [1] = target: T1, OATP1B3 (Homo sapiens, UniProt Q9NPD5); experiment: Drug uptake ratio assessed as enzyme-mediated uptake in HEK293 cells expressing human OATP1B3 at 10 uM at 37 degC for 3 mins cells pretreated with sodium butyrate by liquid scintillation spectroscopy relative to wild type; type: ADME, cell-based
T1 sequence (Q9NPD5 whole entry): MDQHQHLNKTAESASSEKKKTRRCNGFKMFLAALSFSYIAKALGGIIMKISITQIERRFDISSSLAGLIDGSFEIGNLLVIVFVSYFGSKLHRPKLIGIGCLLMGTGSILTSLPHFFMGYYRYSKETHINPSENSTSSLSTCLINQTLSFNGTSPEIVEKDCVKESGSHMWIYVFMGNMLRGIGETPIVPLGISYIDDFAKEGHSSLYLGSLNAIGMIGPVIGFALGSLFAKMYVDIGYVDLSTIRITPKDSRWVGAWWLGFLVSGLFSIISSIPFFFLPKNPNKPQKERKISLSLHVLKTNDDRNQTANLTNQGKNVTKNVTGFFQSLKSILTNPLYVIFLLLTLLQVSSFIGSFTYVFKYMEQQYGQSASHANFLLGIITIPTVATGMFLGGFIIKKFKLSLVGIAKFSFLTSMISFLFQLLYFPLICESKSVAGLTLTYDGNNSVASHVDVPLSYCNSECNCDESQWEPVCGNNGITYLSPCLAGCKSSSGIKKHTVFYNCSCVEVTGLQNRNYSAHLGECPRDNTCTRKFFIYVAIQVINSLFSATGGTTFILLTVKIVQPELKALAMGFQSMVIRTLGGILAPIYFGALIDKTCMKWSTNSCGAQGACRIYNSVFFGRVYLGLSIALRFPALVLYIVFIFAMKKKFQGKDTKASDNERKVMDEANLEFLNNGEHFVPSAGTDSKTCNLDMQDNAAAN

OATP1B1 [2] = target: T2, OATP1B1 (Homo sapiens, UniProt Q9Y6L6); experiment: Drug uptake ratio assessed as enzyme-mediated uptake in HEK293 cells expressing human OATP1B1 at 10 uM at 37 degC for 3 mins by liquid scintillation spectroscopy relative to wild type; type: ADME, cell-based
T2 sequence (Q9Y6L6 whole entry): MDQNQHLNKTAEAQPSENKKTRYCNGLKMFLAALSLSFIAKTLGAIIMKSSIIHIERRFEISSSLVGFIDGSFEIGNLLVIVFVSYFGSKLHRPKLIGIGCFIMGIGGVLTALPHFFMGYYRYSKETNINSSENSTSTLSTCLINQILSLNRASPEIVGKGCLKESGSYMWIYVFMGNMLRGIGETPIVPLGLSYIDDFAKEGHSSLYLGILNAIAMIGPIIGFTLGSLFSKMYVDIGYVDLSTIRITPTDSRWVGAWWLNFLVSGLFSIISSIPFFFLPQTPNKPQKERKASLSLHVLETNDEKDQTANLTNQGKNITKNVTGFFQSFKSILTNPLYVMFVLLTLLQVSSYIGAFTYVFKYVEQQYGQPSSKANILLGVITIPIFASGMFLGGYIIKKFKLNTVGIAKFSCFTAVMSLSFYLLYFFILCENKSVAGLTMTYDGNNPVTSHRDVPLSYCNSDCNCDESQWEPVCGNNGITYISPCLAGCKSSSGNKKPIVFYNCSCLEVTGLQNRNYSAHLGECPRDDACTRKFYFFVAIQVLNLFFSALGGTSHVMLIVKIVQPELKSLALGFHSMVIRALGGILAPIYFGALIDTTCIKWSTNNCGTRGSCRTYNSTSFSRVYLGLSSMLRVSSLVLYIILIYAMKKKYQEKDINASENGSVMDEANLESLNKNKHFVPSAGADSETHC

OATP1B1 [3] = target: T2, OATP1B1; experiment: Drug uptake ratio assessed as enzyme-mediated uptake in HEK293 cells expressing human OATP1B1 at 1 uM at 37 degC for 3 mins by liquid scintillation spectroscopy relative to wild type; type: ADME, cell-based
OATP1B3 [4] = target: T1, OATP1B3; experiment: Drug uptake ratio assessed as enzyme-mediated uptake in HEK293 cells expressing human OATP1B3 at 1 uM at 37 degC for 3 mins by liquid scintillation spectroscopy relative to wild type; type: ADME, cell-based
OATP1B3 [5] = target: T1, OATP1B3; experiment: Drug uptake ratio assessed as enzyme-mediated uptake in HEK293 cells expressing human OATP1B3 at 10 uM at 37 degC for 3 mins by liquid scintillation spectroscopy relative to wild type; type: ADME, cell-based
OATP1B3 [6] = target: T1, OATP1B3; experiment: Drug uptake ratio assessed as enzyme-mediated uptake in HEK293 cells expressing human OATP1B3 at 1 uM at 37 degC for 3 mins cells pretreated with sodium butyrate by liquid scintillation spectroscopy relative to wild type; type: ADME, cell-based
Hepatocyte [7] = conditions: human, hepatocytes, 5 min, 0.05 µM
[8] = Drug excretion in bile (unknown origin); type: ADME, tissue-based; conditions: human, read-out: Drug excretion
Hepatocyte [9] = conditions: human, hepatocytes, 1 µM
Hepatocyte [10] = experiment: Uptake clearance in sandwich-cultured human hepatocytes lot Hu4165 […] measured per mg of protein at 0.05 to 1 uM at 37 degC after 0.5 to 2 mins by scintillation spectroscopy in presence of 100 uM rifamycin SV; type: ADME, cell-based
Hepatocyte [11] = conditions: human, hepatocytes, 5 min, 0.05 µM; remark: listed apart in the source
Hepatocyte [12] = experiment: Drug uptake in sandwich-cultured human hepatocytes lot Hu4165 at 0.05 uM at 37 degC for 5 mins by scintillation spectroscopy in presence of 100 uM digoxin cardiac glycosides (reference value: 100 +/- 3.1 to 100 +/- 7.0%); type: ADME, cell-based
Hepatocyte [13] = experiment: Drug uptake in sandwich-cultured human hepatocytes lot Hu4165 at 0.05 uM at 37 degC for 5 mins by scintillation spectroscopy in presence of 100 uM BSP A OATP and […] inhibitor (reference value: 100 +/- 3.1 to 100 +/- 7.0%); type: ADME, cell-based; set-up: interact cpd dose 100 uM
Hepatocyte [14] = experiment: Drug uptake in sandwich-cultured human hepatocytes measured per mg of protein at 0.05 uM at 4 degC after 5 mins by scintillation spectroscopy; type: ADME, cell-based
Hepatocyte [15] = conditions: human, hepatocytes, 5 min, 0.05 µM; remark: listed apart in the source
Hepatocyte [16] = experiment: Uptake clearance in sandwich-cultured human hepatocytes measured per mg of protein at 0.05 to 10 uM at 37 degC by scintillation spectroscopy; type: ADME, cell-based
Hepatocyte [17] = conditions: human, hepatocytes, 5 min, 0.05 µM; remark: listed apart in the source
Hepatocyte [18] = conditions: human, hepatocytes, 5 min, 0.05 µM; remark: listed apart in the source
Hepatocyte [19] = conditions: human, hepatocytes, 1 µM; remark: listed apart in the source
Hepatocyte [20] = experiment: Drug uptake in sandwich-cultured human hepatocytes measured per mg of protein at 0.05 uM at 37 degC after 5 mins by scintillation spectroscopy; type: ADME, cell-based
Hepatocyte [21] = conditions: human, hepatocytes, 5 min, 0.05 µM; remark: listed apart in the source
[22] = Drug excretion in urine (unknown origin); type: ADME, tissue-based; conditions: human, read-out: Drug excretion
Hepatocyte [23] = experiment: Drug uptake in sandwich-cultured human hepatocytes lot Hu4165 at 0.05 uM at 37 degC for 5 mins by scintillation spectroscopy in presence of 500 uM digoxin (1% DMSO) cardiac glycosides (reference value: 100 +/- 3.1 to 100 +/- 7.0%); type: ADME, cell-based
Hepatocyte [24] = conditions: human, hepatocytes, 5 min, 0.05 µM; remark: listed apart in the source
Hepatocyte [25] = conditions: human, hepatocytes, 5 min, 0.05 µM; remark: listed apart in the source
Hepatocyte [26] = conditions: human, hepatocytes, 5 min, 0.05 µM; remark: listed apart in the source
Hepatocyte [27] = conditions: human, hepatocytes, 5 min, 0.05 µM; remark: listed apart in the source
Hepatocyte [28] = experiment: Drug uptake in sandwich-cultured human hepatocytes lot Hu4165 at 0.05 uM at 37 degC for 5 mins by scintillation spectroscopy in presence of 50 uM FCCP mitochondrial uncouplers (reference value: 100 +/- 3.1 to 100 +/- 7.0%); type: ADME, cell-based; set-up: interact cpd dose 50 uM
Hepatocyte [29] = conditions: human, hepatocytes, 5 min, 0.05 µM; remark: listed apart in the source
[30] = Drug uptake in rat hepatocytes; type: ADME, cell-based, Hepatocyte
Hepatocyte [31] = conditions: human, hepatocytes, 5 min, 0.05 µM; remark: listed apart in the source
Hepatocyte [32] = experiment: Drug uptake in sandwich-cultured human hepatocytes measured per mg of protein at 0.05 to 10 uM at 37 degC by Michaelis-Menten kinetics/scintillation spectroscopy; type: ADME, cell-based
Hepatocyte [33] = conditions: human, hepatocytes, 5 min, 0.05 µM; remark: listed apart in the source
[34] = Drug uptake in sandwich-cultured human hepatocytes at 0.05 to 10 uM at 37 degC by Michaelis-Menten kinetics/scintillation spectroscopy; type: ADME, cell-based, Hepatocyte
Hepatocyte [35] = experiment: Drug uptake in sandwich-cultured human hepatocytes at 0.05 uM at 37 degC by scintillation spectroscopy; type: ADME, cell-based
Hepatocyte [36] = experiment: Uptake clearance in sandwich-cultured human hepatocytes lot Hu4165 […] measured per mg of protein at 0.05 to 1 uM at 37 degC on day 5 by scintillation spectroscopy; type: ADME, cell-based
Hepatocyte [37] = experiment: Drug uptake in sandwich-cultured human hepatocytes lot Hu4165 at 0.05 uM at 37 degC for 5 mins by scintillation spectroscopy in presence of 100 uM rifampicin OATP substrate/inhibitor (reference value: 100 +/- 3.1 to 100 +/- 7.0%); type: ADME, cell-based; set-up: interact cpd dose 100 uM
Hepatocyte [38] = conditions: human, hepatocytes, 5 min, 0.05 µM; remark: listed apart in the source

Cc1ncc2n1-c1ccc(Cl)cc1C(c1ccccc1F)=NC2 [MIDAZOLAM]
uptake ratio at 0.05 h, 10 µM (OATP1B3 [1]): 1.9
uptake ratio at 0.05 h, 10 µM (OATP1B1 [2]): 0.92
uptake ratio at 0.05 h, 1 µM (OATP1B1 [3]): 0.92
uptake ratio at 0.05 h, 1 µM (OATP1B3 [4]): 1.7
uptake ratio at 0.05 h, 10 µM (OATP1B3 [5]): 1.7
uptake ratio at 0.05 h, 1 µM (OATP1B3 [6]): 2.1

C[C@H]1O[C@@H](O[C@H]2[C@@H](O)C[C@H](O[C@H]3[C@@H](O)C[C@H](O[C@H]4CC[C@@]5(C)[C@H](CC[C@@H]6[C@@H]5C[C@@H](O)[C@]5(C)[C@@H](C7=CC(=O)OC7)CC[C@]65O)C4)O[C@@H]3C)O[C@@H]2C)C[C@H](O)[C@@H]1O [DIGOXIN]
Drug uptake (Hepatocyte [7]): 87.4%
dose excreted [8]: 30%
CLup (Hepatocyte [9]): 1.88 µL/min/g
CLup (Hepatocyte [10]): 4.53 µL/min/g
Drug uptake (Hepatocyte [11]): 50.5%
Drug uptake (Hepatocyte [12]): 48.9%
Drug uptake (Hepatocyte [13]): 113%
Drug uptake (Hepatocyte [14]): 1.33 fmol/min
Drug uptake (Hepatocyte [15]): 110%
CLup (Hepatocyte [16]): 1.88 µL/min/g
Drug uptake (Hepatocyte [17]): 89.9%
Drug uptake (Hepatocyte [18]): 45%
CLup (Hepatocyte [19]): 4.06 µL/min/g
Drug uptake (Hepatocyte [20]): 153 fmol/min
Drug uptake (Hepatocyte [21]): 158%
dose excreted [22]: 50%
Drug uptake (Hepatocyte [23]): 55.5%
Drug uptake (Hepatocyte [24]): 115%
Drug uptake (Hepatocyte [25]): 55.4%
Drug uptake (Hepatocyte [26]): 114%
Drug uptake (Hepatocyte [27]): 90.5%
Drug uptake (Hepatocyte [28]): 63.8%
Drug uptake (Hepatocyte [29]): 79.2%
Km [30]: 0.18 µM
Drug uptake (Hepatocyte [31]): 63.1%
Vmax (Hepatocyte [32]): 4.49 pmol/min
Drug uptake (Hepatocyte [33]): 67.5%
Km at up to 10 µM [34]: 2.39 µM
Drug uptake (Hepatocyte [35]): Active
CLup (Hepatocyte [36]): 3.6 µL/min/g
Drug uptake (Hepatocyte [37]): 120%
Drug uptake (Hepatocyte [38]): 163%
